Literature values, collected in US20050106735A1, “COMPOSITON FOR NON-TOXIC, NON-HAZARDOUS, AND ENVIRONMENTALLY FRIENDLY HUMIDITY-INDICATING AGENT AND ITS APPLICATION” (GP&E AMERICA, LLC, priority 2004, published 2005).

Assays:
Rat = details: oral

SMILES | Toxicity (ORL-RAT LD50) (Rat) | Toxicity to aquatic organisms (aquatic organisms) | Concentration at which the substance may cause cancer by inhalation (Commission Directive 2004/73/EC) | European Union carcinogen classification (Council Directive 67/548/EEC)
[Cl-].[Cl-].[Mg+2] [Magnesium Chloride] | 8100 mg/kg | – | – | –
[Cl-].[Cl-].[Zn+2] [Zinc Chloride] | 350 mg/kg | very toxic to aquatic organisms | – | –
[Cl][Cu][Cl] [Copper Chloride] | 584 mg/kg | – | – | –
[Cl][Co][Cl] [Cobalt Chloride] | 80 mg/kg | – | ≥ 0.01% | category 2 carcinogen
[Cl-].[Na+] [Sodium Chloride] | 3000 mg/kg | – | – | –
